Target: Menin-MLL (Homo sapiens (Human), UniProt O00255)
Assay: Determination of binding constants (Ki) to Menin-MLL (HTRF)
Conditions: HTRF, 0.25 nM H-FL-Menin, 3.2 nM FITC-MLL-4-43, 24 hr incubation; for Ki: read-out: Menin-MLL Ki HTRF Assay: Ki

Menin-MLL, sequence (O00255 whole entry): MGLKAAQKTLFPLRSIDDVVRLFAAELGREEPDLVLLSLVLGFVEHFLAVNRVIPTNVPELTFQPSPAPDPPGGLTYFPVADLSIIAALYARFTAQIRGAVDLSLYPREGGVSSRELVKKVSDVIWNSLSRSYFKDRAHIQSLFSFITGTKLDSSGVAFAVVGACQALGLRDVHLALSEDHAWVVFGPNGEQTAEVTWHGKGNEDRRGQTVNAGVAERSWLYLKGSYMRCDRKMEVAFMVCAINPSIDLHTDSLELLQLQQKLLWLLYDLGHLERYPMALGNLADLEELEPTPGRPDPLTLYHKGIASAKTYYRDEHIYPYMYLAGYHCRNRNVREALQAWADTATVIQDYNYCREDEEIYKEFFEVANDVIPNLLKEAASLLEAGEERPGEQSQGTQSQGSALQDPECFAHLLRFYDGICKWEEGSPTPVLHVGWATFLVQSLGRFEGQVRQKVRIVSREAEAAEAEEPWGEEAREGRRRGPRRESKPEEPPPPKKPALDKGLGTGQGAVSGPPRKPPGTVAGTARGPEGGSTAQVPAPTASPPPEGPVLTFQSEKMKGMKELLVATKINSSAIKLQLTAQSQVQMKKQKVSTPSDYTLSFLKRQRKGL

Compound	EC50 [nM]	Ki [nM]
CCN(C(=O)c1cc(F)ccc1Oc1cncnc1N1CC2(CCN(C[C@@H]3CC[C@@H](NS(=O)(=O)N4CC(F)(F)C4)CO3)CC2)C1)C(C)C [Compound 70, 2-((4-(7-(((2S,5R)-5-((3,3-Difluoroazetidine)-1-sulfonamido)tetrahydro-2H-pyran-2-yl)methyl)-2,7-diazaspiro[3.5]nonan-2-yl)pyrimidin-5-yl)oxy)-N-ethyl-5-fluoro-N-isopropylbenzamide]	< 50	< 1
CCN(C(=O)c1cc(F)ccc1Oc1cncnc1N1CC2(CCN(C[C@@H]3CC[C@@H](NS(N)(=O)=O)CO3)CC2)C1)C(C)C [Compound 73, N-Ethyl-5-fluoro-N-isopropyl-2-((4-(7-(((2S,5R)-5-(sulfamoylamino)tetrahydro-2H-pyran-2-yl)methyl)-2,7-diazaspiro[3.5]nonan-2-yl)pyrimidin-5-yl)oxy)benzamide]		< 1
CCN(C(=O)c1cc(F)ccc1Oc1cncnc1N1CC2(CCN(C[C@@H]3CC[C@@H](NS(=O)(=O)c4ccc(=O)n(C)c4)CO3)CC2)C1)C(C)C [Compound 74, N-Ethyl-5-fluoro-N-isopropyl-2-((4-(7-(((2S,5R)-5-((1-methyl-6-oxo-1,6-dihydropyridine)-3-sulfonamido)tetrahydro-2H-pyran-2-yl)methyl)-2,7-diazaspiro[3.5]nonan-2-yl)pyrimidin-5-yl)oxy)benzamide]		< 1
CC(C)N(C(=O)c1cc(F)ccc1Oc1cncnc1N1CC2(CCN(C[C@@H]3CC[C@@H](NS(=O)(=O)N(C)C)CO3)CC2)C1)C(C)C [Compound 77, 2-((4-(7-(((2S,5R)-5-((N,N-Dimethylsulfamoyl)amino)tetrahydro-2H-pyran-2-yl)methyl)-2,7-diazaspiro[3.5]nonan-2-yl)pyrimidin-5-yl)oxy)-5-fluoro-N,N-diisopropylbenzamide]	< 50	< 1
CC(C)N(C(=O)c1cc(F)ccc1Oc1cncnc1N1CC2(CCN(C[C@@H]3CC[C@@H](NS(=O)(=O)C4CCOCC4)CO3)CC2)C1)C(C)C [Compound 79]	< 50	< 1
CC(C)N(C(=O)c1cc(F)ccc1Oc1cncnc1N1CC2(CCN(C[C@@H]3CC[C@@H](NS(=O)(=O)c4ccc(=O)n(C)c4)CO3)CC2)C1)C(C)C [Compound 92, 5-Fluoro-N,N-diisopropyl-2-((4-(7-(((2S,5R)-5-((1-methyl-6-oxo-1,6-dihydropyridine)-3-sulfonamido)tetrahydro-2H-pyran-2-yl)methyl)-2,7-diazaspiro[3.5]nonan-2-yl)pyrimidin-5-yl)oxy)benzamide]		< 1
CC(C)N(CC(F)F)C(=O)c1cc(F)ccc1Oc1cncnc1N1CC2(CCN(C[C@@H]3CC[C@@H](NS(C)(=O)=O)CO3)CC2)C1 [Compound 96, N-(2,2-Difluoroethyl)-5-fluoro-N-isopropyl-2-((4-(7-(((2S,5R)-5-(methylsulfonamido)tetrahydro-2H-pyran-2-yl)methyl)-2,7-diazaspiro[3.5]nonan-2-yl)pyrimidin-5-yl)oxy)benzamide]	< 50	< 1
CC(C)N(CC(F)F)C(=O)c1cc(F)ccc1Oc1cncnc1N1CC2(CCN(C[C@@H]3CC[C@@H](NS(=O)(=O)C4CCOCC4)CO3)CC2)C1 [Compound 98, N-(2,2-Difluoroethyl)-5-fluoro-N-isopropyl-2-((4-(7-(((2S,5R)-5-((tetrahydro-2H-pyran)-4-sulfonamido)tetrahydro-2H-pyran-2-yl)methyl)-2,7-diazaspiro[3.5]nonan-2-yl)pyrimidin-5-yl)oxy)benzamide]	< 50	< 1
CCn1cc(S(=O)(=O)N[C@@H]2CC[C@@H](CN3CCC4(CC3)CN(c3ncncc3Oc3ccc(F)cc3C(=O)N(CC(F)F)C(C)C)C4)OC2)cn1 [Compound 106, N-(2,2-Difluoroethyl)-2-((4-(7-(((2S,5R)-5-((1-ethyl-1H-pyrazole)-4-sulfonamido)tetrahydro-2H-pyran-2-yl)methyl)-2,7-diazaspiro[3.5]nonan-2-yl)pyrimidin-5-yl)oxy)-5-fluoro-N-isopropylbenzamide]		< 1
CC(C)N(CC(F)(F)F)C(=O)c1cc(F)ccc1Oc1cncnc1N1CC2(CCN(C[C@@H]3CC[C@@H](NS(=O)(=O)N4CCOCC4)CO3)CC2)C1 [Compound 108, 5-Fluoro-N-isopropyl-2-((4-(7-(((2S,5R)-5-(morpholine-4-sulfonamido)tetrahydro-2H-pyran-2-yl)methyl)-2,7-diazaspiro[3.5]nonan-2-yl)pyrimidin-5-yl)oxy)-N-(2,2,2-trifluoroethyl)benzamide]	< 50	< 1
CC(C)N(CC(F)(F)F)C(=O)c1cc(F)ccc1Oc1cncnc1N1CC2(CCN(C[C@@H]3CC[C@@H](NS(=O)(=O)C(C)C)CO3)CC2)C1 [Compound 109, 5-Fluoro-N-isopropyl-2-((4-(7-(((2S,5R)-5-((1-methylethyl)sulfonamido)tetrahydro-2H-pyran-2-yl)methyl)-2,7-diazaspiro[3.5]nonan-2-yl)pyrimidin-5-yl)oxy)-N-(2,2,2-trifluoroethyl)benzamide]	< 50	< 1
CC(C)N(C(=O)c1cc(F)ccc1Oc1cncnc1N1CC2(CCN(C[C@@H]3CC[C@@H](NS(=O)(=O)C(C)C)CO3)CC2)C1)C1CC(F)(F)C1 [Compound 110, N-(3,3-Difluorocyclobutyl)-5-fluoro-N-isopropyl-2-((4-(7-(((2S,5R)-5-((1-methylethyl)sulfonamido)tetrahydro-2H-pyran-2-yl)methyl)-2,7-diazaspiro[3.5]nonan-2-yl)pyrimidin-5-yl)oxy)benzamide]	< 50	< 1
CC(C)N(C(=O)c1cc(F)ccc1Oc1cncnc1N1CC2(CCN(C[C@@H]3CC[C@@H](NS(C)(=O)=O)CO3)CC2)C1)C1CC(F)(F)C1 [Compound 112, N-(3,3-Difluorocyclobutyl)-5-fluoro-N-isopropyl-2-((4-(7-(((2S,5R)-5-(methylsulfonamido)tetrahydro-2H-pyran-2-yl)methyl)-2,7-diazaspiro[3.5]nonan-2-yl)pyrimidin-5-yl)oxy)benzamide]	< 50	< 1
CC(C)N(C(=O)c1cc(F)ccc1Oc1cncnc1N1CC2(CCN(C[C@@H]3CC[C@@H](NS(=O)(=O)C4COC4)CO3)CC2)C1)C1CC(F)(F)C1 [Compound 115, N-(3,3-Difluorocyclobutyl)-5-fluoro-N-isopropyl-2-((4-(7-(((2S,5R)-5-(oxetane-3-sulfonamido)tetrahydro-2H-pyran-2-yl)methyl)-2,7-diazaspiro[3.5]nonan-2-yl)pyrimidin-5-yl)oxy)benzamide]	< 50	< 1
CC(C)N(C(=O)c1cc(F)ccc1Oc1cncnc1N1CC2(CCN(C[C@@H]3CC[C@@H](NS(=O)(=O)N4CCOCC4)CO3)CC2)C1)C1CC(F)(F)C1 [Compound 116, N-(3,3-Difluorocyclobutyl)-5-fluoro-N-isopropyl-2-((4-(7-(((2S,5R)-5-(morpholine-4-sulfonamido)tetrahydro-2H-pyran-2-yl)methyl)-2,7-diazaspiro[3.5]nonan-2-yl)pyrimidin-5-yl)oxy)benzamide]	< 50	< 1
